This passage reports IC50 results from patent US12492210B2, “Tricyclic compounds and their use” (HUTCHISON MEDIPHARMA LIMITED, priority 2019, dated 2025).

Assay [1] addresses T1, MAPK1(ERK2) enzyme (Homo sapiens, UniProt P28482).
T1 construct: purchased Invitrogen PV3313
As to the kind of experiment: Z-Lyte Kinase Assay of ERK2. The following applies: read-out: Example 18 IC50. It is filed as biochemical. As to the method: Example 18: Z-Lyte Kinase Assay of ERK2
1. Materials and Reagents:
2. Reaction Steps: Plate Map
3. Solution Preparation • 1) 1.33× Kinase Buffer: Dilute 5× Kinase Buffer to 1.33× with ddH2O • 2) 4× Test Compounds: Serially dilute the test compounds to 4 folds of the concentrations desired, keeping the DMSO concentration at 8%. The final concentrations are 1, 0.33, 0.11, 0.037, 0.012, 0.004, 0.0014, 0.00046 μM, and the final concentration of DMSO is 2%. • 3) Kinase/Peptide Mixture (P/K solution): Prepare Kinase/Peptide Mixture by diluting the kinase to 0.6 μg/ml and the Z-LYTE™ Ser/Thr3 peptide to 4 μM in 1.33× Kinase Buffer. Mix gently by pipetting. • 4) Phospho-peptide Solution (PP solution): Add 0.4 μl of Z-LYTE™ Ser/Thr3 Phospho-peptide to 99.6 μl of 1.33× Kinase Buffer. • 5) ATP Solution: Prepare ATP Solution by diluting the 10 mM of ATP in 1.33× Kinase Buffer to 100 μM. • 6) Development Solution: Dilute Development Reagent A with Development Buffer as 1:1024. 4. Reaction • 1) Kinase reaction (10 μl of Volume) • a. In a 384-well plate, add 2.5 μl of 4× test Cpds to each well except C1, C2, C3 wells Add 2.5 μl of 8% DMSO to C1, C2, C3 wells • b. Put the plate on ice • c. Add 5 μl of P/K mixture to each test Cpd wells and C1, C2 wells • d. Add 5 μl of PP Solution to C3 well • e. Add 2.5 μl of 1.33× kinase buffer to C1 and C3 wells • f. Add 2.5 μl of 4×ATP Solution to each test Cpd wells and C2 well, respectively. Shake the plate for 30 Sec and centrifuge (1500 rpm, 1 min) • g. Seal the plate to protect from the light and incubate the plate for 1 hour at RT (25-30° C.) • 2) Development reaction • a. Add 5 μl of the Development solution to all wells • b. Shake the plate for 30 sec and centrifuge (1500 rpm, 1 min) • c. Seal the plate to protect from the light and incubate the plate for 1 hour at RT (25-30° C.) • 3) Stop and read • a. Add 5 μl of the Stop reagent to all wells • b. Shake the plate for 30 sec and centrifuge (1500 rpm, 1 min) • c. Measure the value of coumarin (Ex400 nm, Em445 nm) and fluorescein (Ex400 nm, Em520 nm), respectively. 5. Data Analysis Emission Ratio(ER)=Coumarin Emission (445 nm)/Fluorescein Emission (520 nm) % Phosphorylation=1−[ER×C3520nm−C3445nm]/[(C1445nm−C3445nm)+ER×(C3520nm−C1520nm)] Inhibition rate (IR)=1−% Photest Cpd% PhoC2 6. IC50 Value: determine IC50 with add-in software for Microsoft Excel, XLfit™ (version 2.0) from ID Business Solutions (Guildford, UK)

The subject of assay [2] is p-RSK (Thr359) in colo205 cells. Kind of assay: p-RSK (Thr359) Acumen Assay in Colo205. It is filed as cell-based. The following applies: Homo sapiens, COLO 205, 1 hour compound incubation, read-out: Example 19 IC50. How it is done:
Example 19: p-RSK (Thr359) Acumen Assay in Colo205
• Phospho-p90RSK (Thr359) (D1E9) Rabbit mAb: cell signal, #8753 • Alexa Fluor® 488 donkey anti-rabbit IgG: invitrogen, #A-21206 • Propidium Iodide: Sigma, #p4170 • 4% Paraformaldehyde: SCRC, #DF021 • 10% Triton X-100: PIERCE, #28314 • 96-well plate (black with clear bottom): BD, #354640 • Acumen® eX3 (A Multilaser Microplate Cytometer For Enhanced High Content Screening): TTP LabTech 3. Acumen Assay Protocol • Seed 4000 cells in 100 μl 10% FBS/well into 96-well plate, incubate at 37° C., 5% CO2, overnight. • Dilute the compound to 3, 1, 0.33, 0.11, 0.037, 0.012, 0.004, 0.001 μM, keeping the DMSO concentration at 5%. Add 10 μl of diluted compound per well and incubate at 37° C., 5% CO2 for 1 hour. • Add 100 μl of 4% pre-warmed Paraformaldehyde (2% final), and incubate for 45 min at room temperature. • Remove paraformaldehyde solutions. Add 100 μl of ice-cold 0.1% Triton to fixed cells at room temperature for 30 min. • Wash twice with 150 μl PBS and incubate with 100 μl blocking buffer (1% BSA, in PBS) for 2˜3 hours at room temperature, seal the plate. • Wash once with PBS and incubate with 35 μl p-RSK (Thr359) (1:1000 dilution) overnight at 4° C. Seal the plate. • Wash twice with PBS and incubate for 1.5 hours at room temperature with 35 μl of Alexa Fluor® 488 donkey anti-rabbit IgG at a 1:1,000 dilution in antibody dilution buffer (0.1% BSA, in PBS). Cover plate in foil to keep out of light. • Wash twice with 150 μl PBS. Add 35 μl of 1.5 μM Propidium Iodide stock to each well to determine cell number, seal the plate. • Incubate at room temperature for 30 min. Load the plate into the Acumen Explorer and scan with the appropriate instrument settings. 4. Data Analysis
[formula] Note: • Percentagecompound well represents the positive percentage of cells treated by compound. • Percentagemin well represents the positive percentage of cells treated with 3 uM GDC0994. • Percentagemax well represents the positive percentage of cells without compounds treatment. 5. IC50 Value: determine IC50 with add-in software for Microsoft Excel, XLfit™ (version 2.0) from ID Business Solutions (Guildford, UK)

T1 sequence (P28482 whole entry): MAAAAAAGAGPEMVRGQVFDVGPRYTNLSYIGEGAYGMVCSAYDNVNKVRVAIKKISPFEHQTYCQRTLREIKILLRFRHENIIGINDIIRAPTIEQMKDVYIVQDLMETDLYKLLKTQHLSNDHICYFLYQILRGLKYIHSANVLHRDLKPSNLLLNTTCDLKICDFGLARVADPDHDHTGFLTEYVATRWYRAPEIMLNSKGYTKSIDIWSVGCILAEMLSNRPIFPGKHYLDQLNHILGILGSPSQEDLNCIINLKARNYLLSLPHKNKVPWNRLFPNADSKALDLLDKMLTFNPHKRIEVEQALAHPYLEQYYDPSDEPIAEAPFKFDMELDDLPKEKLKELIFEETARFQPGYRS

As a reminder, the IC50 is the concentration needed to halve the response being measured. Take `Cn1nccc1Nc1cc(-c2cc3n(c2)C[C@H](F)Cn2c-3nnc2C(F)(F)C(F)(F)F)c(Cl)cn1` [Compound 115]: the IC50 is 0.005 to 0.01 µM in assay [1] and above 0.1 µM in assay [2].

Regarding `CO[C@H]1Cn2cc(-c3cc(Nc4ccnn4C)ncc3Cl)cc2-c2nnc(C3(C(C)(F)F)CCC3)n2C1` [Compound 155], the concentration for half-maximal inhibition (IC50) in assay [1] is 0.005 to 0.01 µM; in assay [2], at most 0.1 µM.

For `Cc1cnc(NC2CCOCC2)nc1-c1cc2n(c1)CCCn1c-2nnc1C1(C(F)(F)F)CCC1` [Compound 277], the values for the IC50 in assay [1] and in assay [2] were at most 0.005 µM and at most 0.1 µM, respectively.

Regarding `Cc1cnc(NC2CCc3ncnn3C2)nc1-c1cc2n(c1)C[C@H](C)n1c-2nnc1C(F)(F)c1ccccc1F` (some centres unmarked) [Compound 280], the IC50 is 0.005 to 0.01 µM in assay [1] and above 0.1 µM in assay [2].

As to `C[C@H]1Cn2cc(-c3cc(Nc4ccnn4C)ncc3F)cc2-c2nnc(C(F)(F)n3cc(Cl)cn3)n21` [Compound 109], the IC50 in assay [1] was at most 0.005 µM; in assay [2], above 0.1 µM.

As for `Cn1nccc1Nc1nccc(-c2cc3n(c2)C[C@H](CF)n2c-3nnc2C(F)(F)c2ccccc2Cl)n1` [Compound 142], the results for the IC50 in assay [1] and in assay [2] were 0.005 to 0.01 µM and at most 0.1 µM, respectively.

As for `Cc1cnc(Nc2ccnn2C)nc1-c1cn2c(n1)-c1nnc(C(F)(F)c3ccccc3Cl)n1[C@H](C)C2` [Compound 221], the figures for the IC50 in assay [1] and in assay [2] were at most 0.005 µM and at most 0.1 µM, respectively.

For `Cn1nccc1Nc1nccc(-c2cc3c4nnc(Cc5cccc(F)c5)n4ccn3c2)n1` [Compound 282], the values for the IC50 in assay [1] and in assay [2] were at most 0.005 µM and above 0.1 µM, respectively.

Consider `Cn1nccc1Nc1cc(-c2cc3n(c2)CCn2c-3nnc2C(F)(F)C(F)F)c(Cl)cn1` [Compound 58], for which the results for the IC50 in assay [1] and in assay [2] were at most 0.005 µM and at most 0.1 µM, respectively.

As to `Cc1cnc(Nc2ccnn2C)nc1-c1cn2c(n1)-c1nnc(C(F)(F)c3ccccc3Cl)n1[C@@H](C)C2` [Compound 222], the IC50 in assay [1] is at most 0.005 µM; in assay [2], at most 0.1 µM.

For the molecule `Cn1nccc1Nc1cc(-c2cc3n(c2)CC(F)(F)Cn2c-3nnc2C2(C(F)(F)F)CC2)c(Cl)cn1` [Compound 140], the IC50 in assay [1] is at most 0.005 µM; in assay [2], at most 0.1 µM.

Regarding `Cc1cnc(Nc2ccnn2C)nc1-c1cc2n(c1)C[C@H](CF)n1c-2nnc1C(F)(F)c1c(F)cccc1F` [Compound 189], the IC50 was 0.005 to 0.01 µM in assay [1] and at most 0.1 µM in assay [2].

On to `Cn1nccc1Nc1cc(-c2cc3n(c2)CCCn2c(COc4ccccc4F)nnc2-3)c(Cl)cn1` [Compound 38], for which the IC50 was above 0.01 µM in assay [1] and at most 0.1 µM in assay [2].

`Cc1cnc(Nc2ccnn2C)cc1-c1cc2n(c1)C[C@H](C(F)F)n1c-2nnc1C(F)(F)c1ccccc1Cl` [Compound 204]: the concentration for half-maximal inhibition (IC50) was above 0.01 µM in assay [1] and at most 0.1 µM in assay [2].

For the molecule `Cn1nccc1Nc1ncc(Cl)c(-c2cc3n(c2)CCCn2c(COc4ccccc4F)nnc2-3)n1` [Compound 211, 5-chloro-4-(3-((2-fluorophenoxy)methyl)-6,7-dihydro-5H-pyrrolo[1,2-a][1,2,4]triazolo[3,4-c][1,4]diazepin-10-yl)-N-(1-methyl-1H-pyrazol-5-yl)pyrimidin-2-amine], the IC50 in assay [1] is 0.005 to 0.01 µM; in assay [2] it was at most 0.1 µM.

Regarding `Cn1nccc1Nc1cc(-c2cc3n(c2)CC(F)(F)Cn2c-3nnc2C(C)(C)C(F)(F)F)c(Cl)cn1` [Compound 146], the IC50 was at most 0.005 µM in assay [1] and at most 0.1 µM in assay [2].

As to `Cn1nccc1Nc1cc(-c2cc3n(c2)CCCCn2c-3nnc2C2(C(F)(F)F)CCC2)c(Cl)cn1` [Compound 261], the IC50 in assay [1] is above 0.01 µM; in assay [2], at most 0.1 µM.

Consider `Cn1nccc1Nc1cc(-c2cc3n(c2)CCCn2c-3nnc2C2(C(F)(F)F)CCC2)c(C#N)cn1` [Compound 248], for which the IC50 is 0.005 to 0.01 µM in assay [1] and above 0.1 µM in assay [2].

As for `Cc1cnc(Nc2ccnn2C)nc1-c1cc2c3nnc(C4(C(F)(F)F)CCC4)n3ccn2c1` [Compound 231], the IC50 is at most 0.005 µM in assay [1] and at most 0.1 µM in assay [2].

`Cn1nccc1Nc1cc(-c2cc3n(c2)CC(F)(F)Cn2c-3nnc2C2(C(F)F)CCC2)c(Cl)cn1` [Compound 266]: the IC50 is at most 0.005 µM in assay [1] and at most 0.1 µM in assay [2].

Regarding `C[C@H]1Cn2cc(-c3ccnc(Nc4ccnn4C)n3)cc2-c2nnc(C(F)(F)c3ccccc3Cl)n21` [Compound 95], the half-inhibitory concentration (IC50) in assay [1] is 0.005 to 0.01 µM; in assay [2], at most 0.1 µM.

For `Cc1cnc(Nc2ccnn2C)cc1-c1cc2n(c1)CC(F)(F)Cn1c-2nnc1C(F)(F)C(F)F` [Compound 78], the values for the IC50 in assay [1] and in assay [2] were at most 0.005 µM and at most 0.1 µM, respectively.

As to `CC[C@H]1Cn2cc(-c3nc(Nc4ccnn4C)ncc3C)cc2-c2nnc(C(F)(F)c3ccccc3F)n21` [Compound 265], the IC50 in assay [1] was above 0.01 µM; in assay [2] it was above 0.1 µM.

On to `Cc1cnc(Nc2ccnn2C)cc1-c1cc2n(c1)C[C@H](CF)n1c-2nnc1C(F)(F)c1nonc1C` [Compound 101], for which the IC50 is at most 0.005 µM in assay [1] and at most 0.1 µM in assay [2].

Take `Cc1cnc(Nc2ccnn2CCO)nc1-c1cc2n(c1)C[C@H](C)n1c-2nnc1C(F)(F)c1ccccc1F` [Compound 293]: the IC50 in assay [1] was 0.005 to 0.01 µM; in assay [2], at most 0.1 µM.

With `Cn1nccc1Nc1cc(-c2cc3n(c2)C[C@H](CF)n2c-3nnc2C(F)(F)n2cc(Cl)cn2)c(Cl)cn1` [Compound 200], the IC50 was 0.005 to 0.01 µM in assay [1] and at most 0.1 µM in assay [2].

For the molecule `Cn1nccc1Nc1cc(-c2cc3n(c2)C[C@H](F)Cn2c-3nnc2C(F)(F)C(F)F)c(Cl)cn1` [Compound 80], the IC50 in assay [1] was at most 0.005 µM; in assay [2] it was at most 0.1 µM.

For `Cn1nccc1Nc1cc(-c2cc3n(c2)CCCn2c(Cc4ccccc4C#N)nnc2-3)c(Cl)cn1` [Compound 27], the IC50 in assay [1] was at most 0.005 µM; in assay [2], at most 0.1 µM.

As to `Cc1cnc(Nc2ccnn2C)cc1-c1cc2n(c1)CCn1c-2nnc1C(F)(F)c1ccccc1F` [Compound 68], the values for the IC50 in assay [1] and in assay [2] were 0.005 to 0.01 µM and above 0.1 µM, respectively.

Consider `Cc1cnc(Nc2ccnn2C)cc1-c1cc2n(c1)CCCn1c-2nnc1C1(C(F)(F)F)CCC1` [Compound 237], for which the IC50 in assay [1] is at most 0.005 µM; in assay [2], at most 0.1 µM.

Take `Cc1cnc(Nc2ccnn2C)nc1-c1cn2c(n1)-c1nnc(C(F)(F)c3ccccc3Cl)n1[C@H](CF)C2` [Compound 224]: the values for the IC50 in assay [1] and in assay [2] were at most 0.005 µM and at most 0.1 µM, respectively.
